The source of these data is ChEMBL document CHEMBL4825729, “Modulators of immunoregulatory exonucleases PLD3 and PLD4 identified by high-throughput screen” (Bioorg Med Chem Lett, 2021).

For series [1], the target named is T1, 5'-3' exonuclease PLD4 (Homo sapiens) (UniProt Q96BZ4).
T1 sequence (whole entry): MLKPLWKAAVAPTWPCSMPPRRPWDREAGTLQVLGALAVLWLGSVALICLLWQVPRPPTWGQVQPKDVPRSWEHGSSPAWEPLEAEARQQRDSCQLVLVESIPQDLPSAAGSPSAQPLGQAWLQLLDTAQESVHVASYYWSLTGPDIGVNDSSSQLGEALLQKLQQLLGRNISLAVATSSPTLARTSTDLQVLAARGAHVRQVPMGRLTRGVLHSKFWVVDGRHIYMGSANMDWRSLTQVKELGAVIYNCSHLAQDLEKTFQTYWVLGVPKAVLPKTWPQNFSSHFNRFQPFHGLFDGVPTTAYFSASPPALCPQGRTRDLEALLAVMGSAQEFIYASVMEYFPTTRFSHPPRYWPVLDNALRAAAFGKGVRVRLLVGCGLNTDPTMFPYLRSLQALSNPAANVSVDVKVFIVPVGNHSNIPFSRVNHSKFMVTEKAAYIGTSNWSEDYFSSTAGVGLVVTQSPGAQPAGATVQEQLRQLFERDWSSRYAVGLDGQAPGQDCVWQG
Nature of the series: Competitive inhibition of PLD4 (unknown origin) assessed as Km using varying concentration 3'-dT-MUP as substrate by fluorescence-based screening assay.

The target of series [2] is T2, 5'-3' exonuclease PLD3 (Homo sapiens) (UniProt Q8IV08).
T2 sequence (whole entry): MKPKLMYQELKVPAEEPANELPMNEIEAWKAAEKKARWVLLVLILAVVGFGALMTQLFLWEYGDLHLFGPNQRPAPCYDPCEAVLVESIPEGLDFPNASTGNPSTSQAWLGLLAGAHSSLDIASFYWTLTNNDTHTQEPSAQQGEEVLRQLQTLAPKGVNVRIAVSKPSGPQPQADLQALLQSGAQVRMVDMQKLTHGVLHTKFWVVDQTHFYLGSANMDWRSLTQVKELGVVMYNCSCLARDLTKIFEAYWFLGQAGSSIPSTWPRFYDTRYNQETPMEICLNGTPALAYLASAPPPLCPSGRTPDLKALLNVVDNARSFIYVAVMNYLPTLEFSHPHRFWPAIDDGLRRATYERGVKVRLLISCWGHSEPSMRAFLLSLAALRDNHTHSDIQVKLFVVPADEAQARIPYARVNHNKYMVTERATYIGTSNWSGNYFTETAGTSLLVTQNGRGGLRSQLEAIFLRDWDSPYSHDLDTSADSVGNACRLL
Description: Mixed type inhibition of PLD3 (unknown origin) assessed as Km using varying concentration 3'-dT-MUP as substrate by fluorescence-based screening assay.

Series [3] has as its target T3, 5'-3' exonuclease PLD4 (Homo sapiens, UniProt Q96BZ4).
T3 sequence (Q96BZ4 whole entry): T1 sequence (whole entry)
Nature of the series: Inhibition of PLD4 (unknown origin) using 3'-dT-MUP as substrate by fluorescence-based screening assay.

Series [4] addresses T1, 5'-3' exonuclease PLD4 (Homo sapiens). Nature of the series: Competitive inhibition of PLD4 (unknown origin) assessed as binding constant using varying concentration 3'-dT-MUP as substrate by fluorescence-based screening assay.
For series [5], the target named is T2, 5'-3' exonuclease PLD3 (Homo sapiens). Description: Mixed type inhibition of PLD3 (unknown origin) assessed as binding constant using varying concentration 3'-dT-MUP as substrate by fluorescence-based screening assay.
Series [6] addresses T3, 5'-3' exonuclease PLD4. Nature of the series: Inhibition of PLD4 (unknown origin) using 3'-dT-nNPP as substrate by fluorescence-based screening assay.
For series [7], the target named is T4, 5'-3' exonuclease PLD3 (Homo sapiens, UniProt Q8IV08).
T4 sequence (Q8IV08 whole entry): T2 sequence (whole entry)
Nature of the series: Inhibition of PLD3 (unknown origin) using 3'-dT-nNPP as substrate by fluorescence-based screening assay.

The target of series [8] is T4, 5'-3' exonuclease PLD3. Description: Inhibition of PLD3 (unknown origin) using 3'-dT-MUP as substrate by fluorescence-based screening assay.
Series [9] concerns the target T2, 5'-3' exonuclease PLD3 (Homo sapiens). Description: Activation of PLD3 (unknown origin) assessed as association constant using varying concentration 3'-dT-MUP as substrate by fluorescence-based screening assay. Conditions: filed as activator; call rule not given here.
For series [10], the target named is T4, 5'-3' exonuclease PLD3. Description: Activation of PLD3 (unknown origin) using 3'-dT-MUP as substrate by fluorescence-based screening assay.
The target in series [11] is T3, 5'-3' exonuclease PLD4. Description: Activation of PLD4 (unknown origin) using 3'-dT-nNPP as substrate by fluorescence-based screening assay.
The target in series [12] is T3, 5'-3' exonuclease PLD4. Description: Activation of PLD4 (unknown origin) using 3'-dT-MUP as substrate by fluorescence-based screening assay.
Series [13] addresses T4, 5'-3' exonuclease PLD3. Description: Activation of PLD3 (unknown origin) using 3'-dT-nNPP as substrate by fluorescence-based screening assay.
Compound in series [14]: Cc1nc(SCC(=O)N2CCC(C)CC2)c2ccsc2n1
Nature of the series: Activation of PLD3 (unknown origin) assessed as Km using varying concentration 3'-dT-MUP as substrate by fluorescence-based screening assay. The following applies: Homo sapiens; filed as activator.

Substrate in series [15]: Cc1cn([C@H]2C[C@H](OP(=O)(O)Oc3ccc([N+](=O)[O-])cc3)[C@@H](CO)O2)c(=O)[nH]c1=O
Nature of the series: (§1) Substrate activity at PLD3 (unknown origin) assessed as Kcat by Michaelis-Menten kinetic model based fluorescence assay. The following applies: Homo sapiens.

Substrate in series [16]: Cc1cn([C@H]2C[C@H](O)[C@@H](COP(=O)(O)Oc3ccc([N+](=O)[O-])cc3)O2)c(=O)[nH]c1=O
The series is described as §1. Conditions: Homo sapiens.

Compound in series [17]: Cc1nc(SCC(=O)N2CCC(C)CC2)c2ccsc2n1
Description: Activation of PLD3 (unknown origin) assessed as Vmax using varying concentration 3'-dT-MUP as substrate by fluorescence-based screening assay. Conditions: Homo sapiens; filed as activator.

Substrate in series [18]: Cc1cn([C@H]2C[C@H](OP(=O)(O)Oc3ccc([N+](=O)[O-])cc3)[C@@H](CO)O2)c(=O)[nH]c1=O
Nature of the series: (§2) Substrate activity at PLD3 (unknown origin) assessed as Km by Michaelis-Menten kinetic model based fluorescence assay. The following applies: Homo sapiens.

Substrate in series [19]: Cc1cn([C@H]2C[C@H](O)[C@@H](COP(=O)(O)Oc3ccc([N+](=O)[O-])cc3)O2)c(=O)[nH]c1=O
The description is as §2. Conditions: Homo sapiens.

Substrate in series [20]: Cc1cn([C@H]2C[C@H](OP(=O)(O)Oc3ccc([N+](=O)[O-])cc3)[C@@H](CO)O2)c(=O)[nH]c1=O
Nature of the series: (§3) Substrate activity at PLD3 (unknown origin) assessed as ratio of Kcat to Km by Michaelis-Menten kinetic model based fluorescence assay. Conditions: Homo sapiens.

Substrate in series [21]: Cc1cn([C@H]2C[C@H](O)[C@@H](COP(=O)(O)Oc3ccc([N+](=O)[O-])cc3)O2)c(=O)[nH]c1=O
The description is as §3. Conditions: Homo sapiens.

Compound in series [22]: Cc1cc(C)cc(N2CCn3c2nc2c3c(=O)n(CC(=O)O)c(=N)n2C)c1
Description: (§4) Mixed type inhibition of PLD3 (unknown origin) assessed as Vmax using varying concentration 3'-dT-MUP as substrate by fluorescence-based screening assay. Conditions: Homo sapiens.

Compound in series [23]: Cc1ccc(Cn2c(SCC(=O)O)nc3c2c(=O)n(C)c(=O)n3C)cc1
The series is described as §4. Conditions: Homo sapiens.

Substrate in series [24]: Cc1cn([C@H]2C[C@H](OP(=O)(O)Oc3ccc([N+](=O)[O-])cc3)[C@@H](CO)O2)c(=O)[nH]c1=O
Description: (§5) Substrate activity at PLD4 (unknown origin) assessed as Kcat by Michaelis-Menten kinetic model based fluorescence assay. The following applies: Homo sapiens.

Substrate in series [25]: Cc1cn([C@H]2C[C@H](O)[C@@H](COP(=O)(O)Oc3ccc([N+](=O)[O-])cc3)O2)c(=O)[nH]c1=O
The series is described as §5. The following applies: Homo sapiens.

Substrate in series [26]: Cc1cn([C@H]2C[C@H](OP(=O)(O)Oc3ccc([N+](=O)[O-])cc3)[C@@H](CO)O2)c(=O)[nH]c1=O
Description: (§6) Substrate activity at PLD4 (unknown origin) assessed as ratio of Kcat to Km by Michaelis-Menten kinetic model based fluorescence assay. The following applies: Homo sapiens.

Substrate in series [27]: Cc1cn([C@H]2C[C@H](O)[C@@H](COP(=O)(O)Oc3ccc([N+](=O)[O-])cc3)O2)c(=O)[nH]c1=O
The series is described as §6. Conditions: Homo sapiens.

Substrate in series [28]: Cc1cn([C@H]2C[C@H](OP(=O)(O)Oc3ccc([N+](=O)[O-])cc3)[C@@H](CO)O2)c(=O)[nH]c1=O
Description: (§7) Substrate activity at PLD4 (unknown origin) assessed as Km by Michaelis-Menten kinetic model based fluorescence assay. Conditions: Homo sapiens.

Substrate in series [29]: Cc1cn([C@H]2C[C@H](O)[C@@H](COP(=O)(O)Oc3ccc([N+](=O)[O-])cc3)O2)c(=O)[nH]c1=O
Described as §7. The following applies: Homo sapiens.

Compound in series [30]: Cc1cc(C)cc(N2CCn3c2nc2c3c(=O)n(CC(=O)O)c(=N)n2C)c1
Description: Competitive inhibition of PLD4 (unknown origin) assessed as Vmax using varying concentration 3'-dT-MUP as substrate by fluorescence-based screening assay. Conditions: Homo sapiens.

Regarding `Cc1cc(C)cc(N2CCn3c2nc2c3c(=O)n(CC(=O)O)c(=N)n2C)c1`, the INH in series [1] is 64.5 µM; in [2], 14.9 µM; in series [4] it was 32.4 µM; in series [5], 28.9 µM. Further, the IC50 (in general, the concentration at which inhibition is half-maximal) stood at 14.7 µM on 5'-3' exonuclease PLD4 [3], 19 µM against 5'-3' exonuclease PLD4 [6], 127 µM against 5'-3' exonuclease PLD3 [7] and 39.6 µM against 5'-3' exonuclease PLD3 [8].

Regarding `Cc1ccc(Cn2c(SCC(=O)O)nc3c2c(=O)n(C)c(=O)n3C)cc1`, the INH in [2] was 13.6 µM; in [5], 6.2 µM. Moreover, the IC50 against 5'-3' exonuclease PLD4 [3] stood at 142 µM; at 5'-3' exonuclease PLD4 [6] it was 128 µM; against 5'-3' exonuclease PLD3 [7], 8.9 µM; at 5'-3' exonuclease PLD3 [8], 13 µM.

Turning to `Cc1nc(SCC(=O)N2CCC(C)CC2)c2ccsc2n1`, in series [9], the Ka is 80.9 µM. Also, the EC50 (commonly the concentration at which the effect is half-maximal) is 12.8 µM on 5'-3' exonuclease PLD3 [10], “Not Active” on 5'-3' exonuclease PLD4 [11], 115 µM on 5'-3' exonuclease PLD4 [12] and 19.6 µM at 5'-3' exonuclease PLD3 [13].

B1: 5'-3' exonuclease PLD3 (Homo sapiens), Q8IV08 (protein)
chain: T2 sequence (whole entry)
As for B1, the Michaelis constant (Km) (as a rule, the concentration of substrate that gives half-maximal velocity) worked out at 14.7 µM in [14], 302 µM in series [18] and 1350 µM in [19]. The figures for the catalytic efficiency (kcat/Km) in series [15] and in [16] were 6.26 M⁻¹ s⁻¹ and 34.8 M⁻¹ s⁻¹, respectively. In addition, the Vmax (as a rule, the top rate of the reaction or transport when substrate is in excess) is 327 /RU/s in series [17], 318 /RU/s in series [22] and 313 /RU/s in [23]. In addition, the catalytic constant (kcat) – broadly, the number of substrate molecules converted per active site and unit of time at saturation – in series [20] was found to be 18.9 s⁻¹; in series [21], 74.5 s⁻¹.

B2: 5'-3' exonuclease PLD4 (Homo sapiens), Q96BZ4 (protein)
chain: T1 sequence (whole entry)
For B2, the figures for the Km in series [24] and in series [25] were 378 µM and 860 µM, respectively. Moreover, the kcat/Km (as a rule, the second-order rate constant that governs catalysis at low substrate concentration) in series [26] came to 5 M⁻¹ s⁻¹; in series [27] it was 86.6 M⁻¹ s⁻¹. The figures for the kcat in series [28] and in series [29] were 18.9 s⁻¹ and 47 s⁻¹, respectively. In addition, in series [30], the Vmax was 1560 /RU/s.
